# Experimental data as given in ChEMBL document CHEMBL3132858, “6-Alkyl-, 6-aryl- or 6-hetaryl-7-deazapurine ribonucleosides as inhibitors of human or MTB adenosine kinase and potential antimycobacterial agents” (Medchemcomm, 2013).
# Active and inactive are the calls of the source. No cut-off for these calls is given here.
# Key:
# [1] = Cytotoxicity against human MRC5 cells after 72 hrs by MTT assay; assay type: cell-based
# Adenosine kinase [2] = target: Adenosine kinase (Mycobacterium tuberculosis (strain CDC 1551 / Oshkosh), UniProt P9WID4); assay: Inhibition of Mycobacterium tuberculosis ADK using [3H]-adenosine by scintillation counting method
# Adenosine kinase (Mycobacterium tuberculosis (strain CDC 1551 / Oshkosh), UniProt P9WID4), sequence (P9WID4 whole entry): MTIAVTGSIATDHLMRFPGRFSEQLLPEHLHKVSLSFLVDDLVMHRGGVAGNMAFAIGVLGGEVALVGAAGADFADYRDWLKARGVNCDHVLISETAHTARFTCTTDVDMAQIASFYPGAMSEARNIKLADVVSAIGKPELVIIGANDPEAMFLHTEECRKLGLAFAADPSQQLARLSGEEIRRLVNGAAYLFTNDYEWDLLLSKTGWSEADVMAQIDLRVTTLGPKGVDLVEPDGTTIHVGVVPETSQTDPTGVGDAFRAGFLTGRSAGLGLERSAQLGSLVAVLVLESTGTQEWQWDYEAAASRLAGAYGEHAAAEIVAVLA
# [3] = target: Adenosine kinase (Mycobacterium tuberculosis (strain CDC 1551 / Oshkosh)) (UniProt P9WID4); assay: Activity of Mycobacterium tuberculosis ADK assessed as compound conversion to 5'-phosphate form incubated at 37 degC for 20 mins by HPLC method
# Adenosine kinase (Mycobacterium tuberculosis (strain CDC 1551 / Oshkosh)), sequence (P9WID4 2-324 limits assumed): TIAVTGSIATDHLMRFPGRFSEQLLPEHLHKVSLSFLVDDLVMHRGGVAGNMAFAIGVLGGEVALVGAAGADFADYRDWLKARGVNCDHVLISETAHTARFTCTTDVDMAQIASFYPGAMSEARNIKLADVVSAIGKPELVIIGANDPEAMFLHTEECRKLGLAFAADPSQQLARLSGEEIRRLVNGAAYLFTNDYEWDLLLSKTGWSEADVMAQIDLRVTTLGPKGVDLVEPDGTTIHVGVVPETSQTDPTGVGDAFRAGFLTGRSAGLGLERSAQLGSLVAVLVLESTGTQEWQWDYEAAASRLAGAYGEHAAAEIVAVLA
# [4] = Cytotoxicity against human BJ cells after 72 hrs by MTT assay; assay type: cell-based
# Adenosine kinase [5] = target: T1, Adenosine kinase (Homo sapiens, UniProt P55263); assay: Inhibition of human ADK using [3H]-adenosine by scintillation counting method
# Target sequence in this assay (P55263 whole entry): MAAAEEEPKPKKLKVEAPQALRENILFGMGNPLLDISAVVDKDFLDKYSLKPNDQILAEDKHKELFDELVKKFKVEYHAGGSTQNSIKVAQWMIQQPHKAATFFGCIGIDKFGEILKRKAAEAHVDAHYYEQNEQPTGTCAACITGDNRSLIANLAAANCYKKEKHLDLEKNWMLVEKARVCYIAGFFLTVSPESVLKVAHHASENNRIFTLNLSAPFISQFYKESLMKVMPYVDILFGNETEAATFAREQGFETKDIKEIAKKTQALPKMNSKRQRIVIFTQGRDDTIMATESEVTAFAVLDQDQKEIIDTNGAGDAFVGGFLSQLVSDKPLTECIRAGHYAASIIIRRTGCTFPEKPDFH
# Adenosine kinase [6] = target: T1, Adenosine kinase; assay: Activity of human ADK assessed as compound conversion to 5'-phosphate form incubated at 37 degC for 20 mins by HPLC method; set-up: concentration or dose not given beside the values
# Target sequence in this assay (P55263 2-362 limits assumed): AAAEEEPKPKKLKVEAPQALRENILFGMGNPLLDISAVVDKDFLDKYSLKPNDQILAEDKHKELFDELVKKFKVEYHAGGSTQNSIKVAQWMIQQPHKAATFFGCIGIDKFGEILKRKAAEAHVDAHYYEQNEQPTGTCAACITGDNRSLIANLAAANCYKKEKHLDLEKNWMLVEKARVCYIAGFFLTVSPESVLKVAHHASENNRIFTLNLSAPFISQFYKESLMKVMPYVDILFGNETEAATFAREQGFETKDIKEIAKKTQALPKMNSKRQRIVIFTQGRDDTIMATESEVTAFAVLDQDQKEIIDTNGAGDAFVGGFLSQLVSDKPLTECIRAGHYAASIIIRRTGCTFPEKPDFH
Compound,CC50 at 72 h [1] [µM],IC50 (Adenosine kinase [2]) [µM],Activity [3],CC50 at 72 h [4] [µM],IC50 (Adenosine kinase [5]) [µM],Activity (Adenosine kinase [6]) [%]
OC[C@H]1O[C@@H](n2ccc3c(-c4ccccc4)ncnc32)[C@H](O)[C@@H]1O,> 50,0.12,inactive,44.1,> 10,
OC[C@H]1O[C@@H](n2ccc3c(-c4ccco4)ncnc32)[C@H](O)[C@@H]1O,11.8,0.32,inactive,0.23,1.3,56
OC[C@H]1O[C@@H](n2cc(F)c3c(-c4nccs4)ncnc32)[C@H](O)[C@@H]1O,> 50,0.028,inactive,0.63,> 20,75
OC[C@H]1O[C@@H](n2ccc3c(-c4cccc5c4sc4ccccc45)ncnc32)[C@H](O)[C@@H]1O,43.8,0.15,inactive,> 50,15.4,
CCCCCCCCCCCCCCCCCCOP(=O)(O)OC[C@H]1O[C@@H](n2ccc3c(-c4ccsc4)ncnc32)[C@H](O)[C@@H]1O,> 50,> 20,inactive,> 50,6.35,
OC[C@H]1O[C@@H](n2cc(F)c3c(-c4cc[nH]c4)ncnc32)[C@H](O)[C@@H]1O,48.9,0.4,inactive,2.02,> 10,97
CCc1ncnc2c1ccn2[C@@H]1O[C@H](CO)[C@@H](O)[C@H]1O,50,8.1,inactive,2.7,> 20,
OC[C@H]1O[C@@H](n2cc(F)c3c(-c4ccc[nH]4)ncnc32)[C@H](O)[C@@H]1O,44.5,0.07,inactive,2.99,> 10,76
OC[C@H]1O[C@@H](n2cc(F)c3c(-c4ccoc4)ncnc32)[C@H](O)[C@@H]1O,15.4,0.15,inactive,0.35,> 10,
OC[C@H]1O[C@@H](n2cc(F)c3c(-c4c[nH]cn4)ncnc32)[C@H](O)[C@@H]1O,> 50,1,inactive,> 50,> 20,11
OC[C@H]1O[C@@H](n2ccc3c(-c4ccsc4)ncnc32)[C@H](O)[C@@H]1O,> 50,0.195,inactive,21.3,> 10,56
OC[C@H]1O[C@@H](n2ccc3c(-c4ccn[nH]4)ncnc32)[C@H](O)[C@@H]1O,1.16,0.059,inactive,43.9,> 20,31
CCCCCCCCCCCCCCCCCCOP(=O)(O)OC[C@H]1O[C@@H](n2ccc3c(-c4cc5ccccc5o4)ncnc32)[C@H](O)[C@@H]1O,> 50,> 20,inactive,> 50,2.9,
Cc1ncnc2c1ccn2[C@@H]1O[C@H](CO)[C@@H](O)[C@H]1O,0.081,8.8,inactive,0.098,> 10,54
OC[C@H]1O[C@@H](n2cc(F)c3c(-c4ccsc4)ncnc32)[C@H](O)[C@@H]1O,50,0.063,inactive,0.62,> 10,51
OC[C@H]1O[C@@H](n2cc(F)c3c(-c4ccco4)ncnc32)[C@H](O)[C@@H]1O,29,0.19,inactive,0.31,1.3,50
OCc1ncnc2c1ccn2[C@@H]1O[C@H](CO)[C@@H](O)[C@H]1O,0.28,> 5,inactive,0.34,> 10,26
OC[C@H]1O[C@@H](n2cc(Cl)c3c(-c4ccoc4)ncnc32)[C@H](O)[C@@H]1O,> 50,0.3,inactive,21.6,3.4,100
CCCCCCCCCCCCCCCCCCOP(=O)(O)OC[C@H]1O[C@@H](n2ccc3c(-c4ccccc4)ncnc32)[C@H](O)[C@@H]1O,> 50,> 20,inactive,> 50,4.4,
OC[C@H]1O[C@@H](n2ccc3c(-c4cccc5c4oc4ccccc45)ncnc32)[C@H](O)[C@@H]1O,> 50,2.35,inactive,> 50,5.26,

Compound,CC50 at 72 h [1] [µM],IC50 (Adenosine kinase [2]) [µM],Activity [3],CC50 at 72 h [4] [µM],IC50 (Adenosine kinase [5]) [µM],Activity (Adenosine kinase [6]) [%]
OC[C@H]1O[C@@H](n2ccc3c(-c4cc5ccccc5o4)ncnc32)[C@H](O)[C@@H]1O,> 50,0.0145,inactive,> 50,2.1,
OC[C@H]1O[C@@H](n2ccc3c(-c4cc5ccccc5[nH]4)ncnc32)[C@H](O)[C@@H]1O,> 50,0.04,inactive,> 50,8.35,
OC[C@H]1O[C@@H](n2cc(Cl)c3c(-c4ccsc4)ncnc32)[C@H](O)[C@@H]1O,> 50,0.25,inactive,1.72,> 10,97
CCCCCCCCCCCCCCCCCCOP(=O)(O)OC[C@H]1O[C@@H](n2ccc3c(-c4ccco4)ncnc32)[C@H](O)[C@@H]1O,45.3,> 20,inactive,> 50,2.4,
OC[C@H]1O[C@@H](n2ccc3c(-c4cc5ccccc5s4)ncnc32)[C@H](O)[C@@H]1O,> 50,0.0075,inactive,> 50,0.3,
OC[C@H]1O[C@@H](n2cc(F)c3c(-c4cccs4)ncnc32)[C@H](O)[C@@H]1O,47.2,0.035,inactive,0.17,1.1,52
CCCCCCCCCCCCCCCCCCOP(=O)(O)OC[C@H]1O[C@@H](n2ccc3c(-c4cccs4)ncnc32)[C@H](O)[C@@H]1O,,> 20,inactive,,1.97,
OC[C@H]1O[C@@H](n2ccc3c(-c4cccnc4)ncnc32)[C@H](O)[C@@H]1O,> 50,1,inactive,50,> 10,
OC[C@H]1O[C@@H](n2ccc3c(-c4c[nH]cn4)ncnc32)[C@H](O)[C@@H]1O,> 50,0.78,inactive,0.21,> 10,28
OC[C@H]1O[C@@H](n2ccc3c(-c4nccs4)ncnc32)[C@H](O)[C@@H]1O,37,0.023,inactive,0.26,> 20,41
OC[C@H]1O[C@@H](n2ccc3c(-c4ccoc4)ncnc32)[C@H](O)[C@@H]1O,45.4,0.32,inactive,1.2,> 10,32
OC[C@H]1O[C@@H](n2cc(Cl)c3c(-c4ccco4)ncnc32)[C@H](O)[C@@H]1O,> 50,0.11,inactive,37.2,0.29,77
OC[C@H]1O[C@@H](n2ccc3c(-c4ccc[se]4)ncnc32)[C@H](O)[C@@H]1O,> 50,0.03,inactive,1.52,> 10,43
OC[C@H]1O[C@@H](n2ccc3c(Cc4ccccc4)ncnc32)[C@H](O)[C@@H]1O,> 50,> 20,inactive,36.9,> 20,
OC[C@H]1O[C@@H](n2ccc3c(-c4cccs4)ncnc32)[C@H](O)[C@@H]1O,> 50,0.046,inactive,0.31,> 5,
OC[C@H]1O[C@@H](n2ccc3c(-c4ccc(F)cc4)ncnc32)[C@H](O)[C@@H]1O,> 50,0.08,inactive,> 50,> 10,17
OC[C@H]1O[C@@H](n2cc(Cl)c3c(-c4ccc(F)cc4)ncnc32)[C@H](O)[C@@H]1O,> 50,0.4,inactive,49.5,> 20,
CCCCCCCCCCCCCCCCCCOP(=O)(O)OC[C@H]1O[C@@H](n2ccc3c(-c4ccoc4)ncnc32)[C@H](O)[C@@H]1O,> 50,> 20,inactive,44.2,5.15,
COc1ccc(-c2ncnc3c2ccn3[C@@H]2O[C@H](CO)[C@@H](O)[C@H]2O)cc1,> 50,0.058,inactive,> 50,> 10,
OC[C@H]1O[C@@H](n2ccc3c(-c4cccc5c4Oc4ccccc4S5)ncnc32)[C@H](O)[C@@H]1O,> 50,1.46,inactive,> 50,3.07,
